According to US9181305B2, “Exendin-4 peptide analogues” (SANOFI, priority 2012, dated 2015):
Converted amounts (≈) assume the structure as drawn. *1 amine or outer side, *2 acyl side, *3 side chain or, on linkers, in order; H or OH if unused. Where a SMILES comes first, the peptide text is derived from it. Side-chain parts run from the residue outwards. [ ]: non-standard residue; d: D form. The star is where a group is joined. γGlu = O=C(O)[C@H](CCC(=O)[*:2])N[*:1]; Palmitoyl = CCCCCCCCCCCCCCCC(=O)*

Legend:
[1] = biological target: T1, human glucagon receptor (hGlucagon R) (Homo sapiens, UniProt P47871); assay: cAMP response (HTRF) of HEK-293 cells stably expressing human glucagon receptor; assay type: cell-based; details: read-out: EC50 hGlucagonR
T1 construct: expressed in transfected cells; host or cells: HEK-293
Method: cAMP content of cells was determined using a kit from Cisbio Corp. (cat. no. 62AM4PEC) based on HTRF (Homogenous Time Resolved Fluorescence). For preparation, cells were split into T175 culture flasks and grown overnight to near confluency in medium (DMEM/10% FBS). Medium was then removed and cells washed with PBS lacking calcium and magnesium, followed by proteinase treatment with accutase (Sigma-Aldrich cat. no. A6964). Detached cells were washed and resuspended in assay buffer (1×HBSS; 20 mM HEPES, 0.1% BSA, 2 mM IBMX) and cellular density determined. […] For measurement, 25 μl of test compound in assay buffer was added to the wells, followed by incubation for 30 minutes at room temperature.

physchem = assay type: physicochemical
Method: Prior to the testing of solubility and stability of a peptide batch, its content was determined. Therefore, two parameters were investigated, its purity (HPLC-UV) and the amount of salt load of the batch (ion chromatography). Since synthesized peptides contain primarily trifluoracetate anions, only anion chromatography was performed. The content was then calculated based on the assumption that peptide-related impurities are detected at the same UV-absorption rate as the target peptide, as well as that cations are not present in the sample.
Therefore, solutions from solid samples were prepared in different buffer systems with a concentration of 1.0 mg/mL compound based on the previously determined content. HPLC-UV was performed after 2 h of gentle agitation from the supernatant, which was obtained by 20 min of centrifugation at 4000 rpm. […] This analysis also served as t0 for the stability testing.
Instrument: Agilent 1100, column: X-Bridge C18 3.5 μm 2.1×150 mm (Waters), eluent: A: H20+500 ppm TFA/B: Methanol, flow: 0.55 ml/min, gradient: 0-5 min: 10-60% B; 5-15 min: 60-99% B; detection: 214 nm.

[2] = biological target: T2, human GLP-1 receptor (hGLP-1 R) (Homo sapiens, UniProt P43220); assay: cAMP response (HTRF) of HEK-293 cells stably expressing human GLP-1 receptor; assay type: cell-based; details: HEK-293 cells expressing human GLP-1 receptor, cAMP formation
T2 construct: expressed in transfected cells; host or cells: HEK-293
In short: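 Detached HEK-293 cells stably expressing the receptor were suspended in HBSS with 20 mM HEPES, 0.1% BSA and 2 mM IBMX. Test compound was added for 30 min at room temperature, and cellular cAMP was quantified by HTRF.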

T1 sequence (P47871 26-477): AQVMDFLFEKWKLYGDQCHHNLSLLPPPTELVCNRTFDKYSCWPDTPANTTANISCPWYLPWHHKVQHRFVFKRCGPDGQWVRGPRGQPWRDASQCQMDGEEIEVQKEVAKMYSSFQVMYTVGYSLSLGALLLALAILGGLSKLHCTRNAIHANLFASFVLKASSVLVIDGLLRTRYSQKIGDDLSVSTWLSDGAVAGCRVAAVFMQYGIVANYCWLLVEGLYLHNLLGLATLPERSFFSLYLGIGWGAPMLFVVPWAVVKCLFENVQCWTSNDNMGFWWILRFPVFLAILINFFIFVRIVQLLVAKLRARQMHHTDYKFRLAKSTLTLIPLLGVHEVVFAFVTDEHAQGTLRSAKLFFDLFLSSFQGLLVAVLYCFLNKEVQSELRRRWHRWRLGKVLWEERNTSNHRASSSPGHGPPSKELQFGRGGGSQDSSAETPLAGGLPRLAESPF
T2 sequence (P43220 24-463): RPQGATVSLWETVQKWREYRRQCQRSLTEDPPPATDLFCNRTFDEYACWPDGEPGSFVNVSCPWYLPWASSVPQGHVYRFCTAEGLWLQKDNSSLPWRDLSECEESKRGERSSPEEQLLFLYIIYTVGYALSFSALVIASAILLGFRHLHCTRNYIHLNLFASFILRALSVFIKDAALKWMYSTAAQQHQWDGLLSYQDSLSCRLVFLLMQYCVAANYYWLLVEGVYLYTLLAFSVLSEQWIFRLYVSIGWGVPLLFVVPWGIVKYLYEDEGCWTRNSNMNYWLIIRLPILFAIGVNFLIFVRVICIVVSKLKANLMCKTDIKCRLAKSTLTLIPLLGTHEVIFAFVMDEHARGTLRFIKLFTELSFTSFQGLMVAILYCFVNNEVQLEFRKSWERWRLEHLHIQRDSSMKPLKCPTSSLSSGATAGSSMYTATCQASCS

SMILES | EC50 [1] [pM] | solubility at 2 h (physchem; pH 4.5) [mg/mL] | solubility at 2 h (physchem; pH 7.4) [mg/mL] | EC50 [2] [pM]
CCCCCCCCCCCCCCCC(=O)N[C@@H](CCC(=O)NCCCC[C@H](NC(=O)[C@H](CO)NC(=O)[C@@H]1CCCN1C(=O)[C@@H]1CCCN1C(=O)[C@@H]1CCCN1C(=O)[C@H](C)NC(=O)CNC(=O)[C@H](CO)NC(=O)[C@H](CO)NC(=O)[C@@H]1CCCN1C(=O)CNC(=O)[C@@H](NC(=O)[C@H](CC(N)=O)NC(=O)[C@H](CCCCN)NC(=O)[C@H](CC(C)C)NC(=O)[C@H](Cc1c[nH]c2ccccc12)NC(=O)[C@H](CCC(=O)O)NC(=O)[C@@H](NC(=O)[C@H](Cc1ccccc1)NC(=O)[C@H](CC(=O)O)NC(=O)[C@H](CCC(N)=O)NC(=O)[C@H](C)NC(=O)[C@H](CCCNC(=N)N)NC(=O)[C@H](CCCNC(=N)N)NC(=O)[C@H](CO)NC(=O)[C@H](CC(=O)O)NC(=O)[C@H](CCSC)NC(=O)[C@H](CCC(N)=O)NC(=O)[C@H](CCCCN)NC(=O)[C@H](CO)NC(=O)[C@H](CC(C)C)NC(=O)[C@H](CC(=O)O)NC(=O)[C@H](CO)NC(=O)[C@@H](NC(=O)[C@H](Cc1ccccc1)NC(=O)[C@@H](NC(=O)CNC(=O)[C@H](CCC(N)=O)NC(=O)[C@@H](CO)NC(=O)[C@@H](N)Cc1c[nH]cn1)[C@@H](C)O)[C@@H](C)O)[C@@H](C)CC)[C@@H](C)O)C(N)=O)C(=O)O [(71)] | 1.9 | – | – | –
CCCCCCCCCCCCCCCC(=O)N[C@@H](CCC(=O)NCCCC[C@H](NC(=O)[C@H](CO)NC(=O)[C@@H]1CCCN1C(=O)[C@@H]1CCCN1C(=O)[C@@H]1CCCN1C(=O)[C@H](C)NC(=O)CNC(=O)[C@H](CO)NC(=O)[C@H](CO)NC(=O)[C@@H]1CCCN1C(=O)CNC(=O)CNC(=O)[C@H](C)NC(=O)[C@H](CCCCN)NC(=O)[C@H](CC(C)C)NC(=O)[C@H](Cc1c[nH]c2ccccc12)NC(=O)[C@H](CCC(=O)O)NC(=O)[C@@H](NC(=O)[C@H](Cc1ccccc1)NC(=O)[C@H](CC(C)C)NC(=O)[C@H](CCC(N)=O)NC(=O)[C@H](C)NC(=O)[C@H](C)NC(=O)[C@H](CCCNC(=N)N)NC(=O)[C@H](CO)NC(=O)[C@H](CCC(=O)O)NC(=O)[C@H](CCSC)NC(=O)[C@H](CCC(N)=O)NC(=O)[C@H](CCCCN)NC(=O)[C@H](CO)NC(=O)[C@H](CC(C)C)NC(=O)[C@H](CC(=O)O)NC(=O)[C@H](CO)NC(=O)[C@@H](NC(=O)[C@H](Cc1ccccc1)NC(=O)[C@@H](NC(=O)CNC(=O)[C@H](CCC(N)=O)NC(=O)[C@@H](CO)NC(=O)[C@@H](N)Cc1c[nH]cn1)[C@@H](C)O)[C@@H](C)O)[C@@H](C)CC)C(N)=O)C(=O)O [(79)] (H-H[dS]QGTFTSDLSKQMESRAAQLFIEWLKAGGPSSGAPPPSK([γGlu-Palmitoyl])-NH2) | 195 | > 1 | 0.666 (≈ 145 µM) | 3.7
